Data reported in patent US11434205B2, “Substituted imidazole carboxylate derivatives and the use thereof” (priority 2018, dated 2022).
Values joined by “and” are separate entries in the source; they are usually repeats but may differ in a detail not shown here. Equal values may be shown once. “Also recorded” adds a separate entry of the source. Read-outs that look alike come from different tables or passages of the source. Marks after values point to notes of the source that are not given here.

Tests used:
rats [1] = test system: rats
Experimental: (§1) Adult male Sprague-Dawley rats (250-300 g) were selected for the experiment. […] The anesthesia effects of the compounds were assessed in rats using a LORR assay and a period >30 s was considered as an indicator of general anesthesia. Then the up and down method was used to determine 50% effective dose (ED50). The drugs were administered through the tail vein of rats in a volume of 0.6 mL and at a rate of 0.1 mL/s.

rats [2] = type: in vivo, rat; details: rats of the MAP/HR figures, 2×ED50, tail vein
rats [3] = test: Loss of righting reflexes (LORR) assay in rats, ED50 by up and down method; type: in vivo, rat; details: tail vein; for ED50: Rattus norvegicus
Experimental: The Anesthetic Activity of the Compounds was Assessed in Rats Using a Loss of Righting Reflexes (LORR) Assay
as §1

rats [4] = type: in vivo, rat; details: for recovery time of the test animals' righting reflex: rats of the MAP/HR figures, 2×ED50, tail vein, same value in min
Experimental: The Effects of the Compounds on the Circulatory Function were Measured in Rats Using a Small Animal Implanted Physiological Signal Telemetry System
The anesthetic activity of the compounds was assessed in rats using a LORR assay and the up and down method was used to determine ED50. […] A small animal implantable physiological signal telemetry system from DSI (Data Science International, Inc.) was used to measure the changes in heart rate (HR) and blood pressure in rats during 30 min after administration. Then mean arterial pressure (MAP) and HR were used as representative indicators to determine hemodynamic stability of the compounds of the present invention in rats.
A small animal implantable physiological signal telemetry system from DSI (Data Science International, Inc.) including implants (RATHD-521, DSI, United States), receiver boards (RPC-1, DSI, United States), signal conversion devices (DEM, DSI, USA), perfusion glue (DSI, USA), fibrin membrane (DSI, USA), etc.
First, animal models were established. A left ventricular catheter, an abdominal aortic catheter and ECG wires were placed into rats. At least one week after surgery, data were recorded.
Administration procedure: rats were put into a restraint device with a 20 G indwelling catheter placed into a lateral tail vein. After administration of 0.2 mL heparin, a pre-filled extension tube was attached and taped to the tail vein to secure the extension tube. Then the rats were removed from the restraint device to a cage before placing them together on the signal receiver. […] Finally, the pharmacological effects, adverse reactions, and behavioural manifestations of the rats were observed and recorded
Data collection: After setting the data collection parameters on the software, the power of the implant was turned on to start data collection. In this experiment, data recording frequency was set to 15 s. Data collection was continuously recorded for 30 min before and after administration of the drugs in rats. After data acquisition, the test was stopped.

rats [5] = test: Pharmacological characteristics at equivalent doses (2×ED50) in rats; details: 2×ED50, tail vein; for Adverse reactions: Red urine (incidence): DMSO solution (DMSO alone 10/10); for Adverse reactions: Tremor (incidence): animals affected/animals; for Onset time: time of LORR
Experimental: Comparison of Pharmacological Characteristics of the Compounds at Equivalent Doses (2×ED50) in Rats
Adult male Sprague-Dawley rats (250-300 g) were selected for the experiment (n=8). […] The drugs were administered at a dose twice their ED50 through the tail vein of rats in a volume of 0.6 mL and at a rate of 0.1 mL/s. In addition, the time of LORR was recorded as the onset time of anesthesia. […] Furthermore, the duration of the pharmacological effects is sufficient to meet the time requirements for rapid induction of general anesthesia and for diagnostic examinations, some short invasive clinical examinations, or operations.

rats [6] = test system: rats; remark: listed apart in the source
Experimental: Pharmacological Effects of the Compounds on Continuous Infusion in Rats
Adult male Sprague-Dawley rats with body weight ranging from 250 to 300 gm were selected for continuous infusion test. […] Time to recovery of righting reflex from stopping infusion, and time to fully awake from stopping infusion were recorded.

[7] = test system: secretion of corticosterone, H295R cell line; test: cells; type: cell-based; details: for EC50: read-out: EC50 (Corticosterone)
Experimental: (§2) The Effects of the Compounds on Adrenocortical Function In Vitro Test
(§3) Then secretion of the cortisol and corticosterone in the supernatant, was measured using HPLC-MS/MS method to determine whether the compounds of the present invention had adrenotoxic potential.

[8] = test system: secretion of cortisol, H295R cell line; test: cells; type: cell-based; details: for EC50: read-out: EC50 (Cortisol)
Experimental: as §2, §3

[9] = continuous tail vein infusion at 2×MIR, LORR maintained 1 hour, Table C4
[10] = continuous tail vein infusion at 2×MIR, LORR maintained 1 hour, Table D4
[11] = continuous tail vein infusion at 2×MIR, LORR maintained 1 hour, Table E4
[12] = emulsion, continuous infusion at 2×MIR
[13] = H295R cell line, 0.1-10000 nM, HPLC-MS/MS, Table D3
[14] = H295R cell line, 0.1-10000 nM, HPLC-MS/MS, Table E3
[15] = H295R, 0.1-10000 nM, HPLC-MS/MS

CCC(CC)OC(=O)c1c(F)ncn1[C@H](C)c1ccccc1 [Compound E22]
Approximate therapeutic index (rats [1]): >30 | Minimal lethal dose (rats [1]): >4 mg/kg | recovery time of the test animals' righting reflex (rats [2]): 66 s | ED50 (mg/kg) (rats [3]; class symbols): B (B means that the measured ED50 is in the range of 0.10-0.50 mg/kg (excluding 0.10 mg/kg, including 0.50 mg/kg).) | recovery time of the test animals' righting reflex (rats [4]): 1.10 min | Righting reflex duration (rats [5]): 0.99 ± 0.70 min | Sedation duration (mg/kg) (rats [5]): 5.51 ± 1.13 | Adverse reactions: Red urine (incidence) (rats [5]): urine (8/8) | Adverse reactions: Tremor (incidence) (rats [5]): (4/8), Red | Onset time (rats [5]): 0.73 ± 0.13 min

CC#CC(C)(C)OC(=O)c1c(F)ncn1[C@H](C)c1ccccc1 [Compound E17]
Approximate therapeutic index (rats [1]): >32 | Minimal lethal dose (rats [1]): >9 mg/kg | recovery time of the test animals' righting reflex (rats [2]): 196 s | ED50 (rats [3]; class symbols): 0.1 to 0.5 mg/kg | recovery time of the test animals' righting reflex (rats [4]): 3.27 min | Adverse reactions: Muscle twitching (incidence) (rats [5]): (1/8), | Righting reflex duration (rats [5]): 3.12 ± 1.61 min | Adverse reactions: Red urine (incidence) (rats [5]): (8/8) | Onset time (rats [5]): 0.26 ± 0.07 min

C[C@H](c1ccccc1)n1cnc(F)c1C(=O)OC1CCC1 [Compound E9]
Approximate therapeutic index (rats [1]): >48 | Minimal lethal dose (rats [1]): >6 mg/kg | recovery time of the test animals' righting reflex (rats [2]): 77 s | ED50 (mg/kg) (rats [3]; class symbols): B (B means that the measured ED50 is in the range of 0.10-0.50 mg/kg (excluding 0.10 mg/kg, including 0.50 mg/kg).) | recovery time of the test animals' righting reflex (rats [4]): 1.28 min | Righting reflex duration (rats [5]): 1.24 ± 0.79 min | Sedation duration (mg/kg) (rats [5]): 9.29 ± 2.07 | Adverse reactions: Red urine (incidence) (rats [5]): (8/8) | Onset time (rats [5]): 0.42 ± 0.20 min

CC#CC1(OC(=O)c2c(F)ncn2[C@H](C)c2ccccc2)COC1 [Compound E15]
Approximate therapeutic index (rats [1]): >32 | Minimal lethal dose (rats [1]): >5 mg/kg | recovery time of the test animals' righting reflex (rats [2]): 72 s | ED50 (rats [3]; class symbols): 0.1 to 0.5 mg/kg | recovery time of the test animals' righting reflex (rats [4]): 1.20 min | Righting reflex duration (rats [5]): 1.10 ± 0.89 min | Adverse reactions: Red urine (incidence) (rats [5]): urine (8/8) | Adverse reactions: Tremor (incidence) (rats [5]): (2/8), Red | Onset time (rats [5]): 0.42 ± 0.13 min

COC(=O)C1(OC(=O)c2cncn2[C@H](C)c2ccccc2)CC1 [CPMM, cyclopropyl methoxycarbonyl methylate, reference compound]
Approximate therapeutic index (rats [1]): >10 | Minimal lethal dose (rats [1]): >7.8 mg/kg | Recovery time after stopping infusion (rats [6]; after 1 hour infusion at 2×MIR): 7 to 8 min | Adverse reactions: Convulsions (incidence) (rats [6]; continuous infusion 2×MIR): 3/6 | Adverse reactions: Myoclonus (incidence) (rats [6]; continuous infusion 2×MIR): Myoclonus (5/6) | Adverse reactions: Tremor (incidence) (rats [6]; continuous infusion 2×MIR): 5/6 | Onset time (rats [6]; [9]): 3 to 4 min | Recovery time after stopping infusion (rats [6]; [9]): 7 to 8 min | Onset time (rats [6]; [10]): 3 to 4 min | Recovery time after stopping infusion (rats [6]; [10]): 7 to 8 min | Onset time (rats [6]; [11]): 3 to 4 min | Recovery time after stopping infusion (rats [6]; [11]): 7 to 8 min | Onset time (rats [6]; [12]): 3 to 4 min | ED50 (mg/kg) (rats [3]; brackets = 95% confidence limit): 0.78 (0.74-0.82)* mg/kg | effect on the circulatory function (MAP, HR) (rats [4]; rats, 2×ED50, 30 min after administration): almost no inhibitory effect on the circulatory function | Adverse reactions: Convulsions (incidence) (rats [5]): Convulsions (4/10), Tremor and 4/10 and Convulsions (4/10), and (4/10), | Adverse reactions: Myoclonus (incidence) (rats [5]): (5/10), Myoclonus (5/10); also recorded: Myoclonus (5/10) | Righting reflex duration (rats [5]): 1.62 ± 0.63 min | Adverse reactions: Tremor (incidence) (rats [5]): (5/10), Myoclonus (5/10) and 5/10 and Tremor (5/10), and (5/10), | Onset time (rats [5]): 0.26 ± 0.08 min | Corticosterone as an indicator to determine the presence of inhibition [7, 13]: 1 | EC50 [7, 13]: > 100 nM | Corticosterone as an indicator to determine the presence of inhibition [7, 14]: 1 | EC50 [7, 14]: > 100 nM | EC50 [7, 15]: > 100 nM | Corticosterone as an indicator to determine the presence of inhibition ([7]; H295R, Table A3): 1 | Corticosterone as an indicator to determine the presence of inhibition ([7]; H295R, Table B3): 1 | Corticosterone as an indicator to determine the presence of inhibition ([7]; H295R, Table C3): 1 | Cortisol as an indicator to determine the presence of inhibition [8, 13]: 1 | EC50 [8, 13]: > 10 nM | Cortisol as an indicator to determine the presence of inhibition [8, 14]: 1 | EC50 [8, 14]: > 10 nM | EC50 [8, 15]: > 10 nM | Cortisol as an indicator to determine the presence of inhibition ([8]; H295R, Table A3): 1 | Cortisol as an indicator to determine the presence of inhibition ([8]; H295R, Table B3): 1 | Cortisol as an indicator to determine the presence of inhibition ([8]; H295R, Table C3): 1

CCC(C)(C)OC(=O)c1cncn1[C@H](C)c1ccccc1 [Compound C19]
Approximate therapeutic index (rats [1]): >20 | Minimal lethal dose (rats [1]): >5 mg/kg | ED50 (rats [3]; class symbols): 0.1 to 0.5 mg/kg | Righting reflex duration (rats [5]): 1.26 ± 0.99 min | Adverse reactions: Red urine (incidence) (rats [5]): Red urine (8/8) | Onset time (rats [5]): 0.45 ± 0.23 min | Corticosterone as an indicator to determine the presence of inhibition ([7]; H295R, Table C3): 0 | EC50 ([7]; Homo sapiens, NCI-H295R): > 1000 nM | Cortisol as an indicator to determine the presence of inhibition ([8]; H295R, Table C3): 0 | EC50 ([8]; Homo sapiens, NCI-H295R): > 1000 nM

C=C=CC1(OC(=O)c2cncn2[C@H](C)c2ccccc2)CSC1 [Compound D28]
Approximate therapeutic index (rats [1]): >16 | Minimal lethal dose (rats [1]): >10 mg/kg | Onset time (rats [6]; [10]): 3 to 4 min | Recovery time after stopping infusion (rats [6]; [10]): 13 to 16 min | Types and incidence of adverse reactions (rats [6]; [10]): Tremor (2/6) | ED50 (rats [3]; class symbols): 0.01 to 0.1 mg/kg | Righting reflex duration (rats [5]): 5.09 ± 1.89 min | Adverse reactions: Red urine (incidence) (rats [5]): Red urine (8/8) | Onset time (rats [5]): 0.25 ± 0.06 min | Corticosterone as an indicator to determine the presence of inhibition [7, 13]: 0 | EC50 ([7]; Homo sapiens, NCI-H295R): > 10000 nM | Cortisol as an indicator to determine the presence of inhibition [8, 13]: 0 | EC50 ([8]; Homo sapiens, NCI-H295R): > 10000 nM

C[C@H](c1ccccc1)n1cncc1C(=O)OC1(C)CCC1=O (some centres unmarked) [Compound A13]
Approximate therapeutic index (rats [1]): >10 | Minimal lethal dose (rats [1]): >4 mg/kg | ED50 (rats [3]; class symbols): 0.1 to 0.5 mg/kg | Righting reflex duration (rats [5]): 2.31 ± 2.14 min | Adverse reactions: Red urine (incidence) (rats [5]): Red urine (8/8) | Onset time (rats [5]): 0.56 ± 0.12 min | Corticosterone as an indicator to determine the presence of inhibition ([7]; H295R, Table A3): 0 | EC50 ([7]; Homo sapiens, NCI-H295R): > 10000 nM | Cortisol as an indicator to determine the presence of inhibition ([8]; H295R, Table A3): 0 | EC50 ([8]; Homo sapiens, NCI-H295R): > 10000 nM

C[C@H](c1ccccc1)n1cncc1C(=O)OCC1(C2CO2)CCC1 (some centres unmarked) [Compound A21]
Approximate therapeutic index (rats [1]): >16 | Minimal lethal dose (rats [1]): >5 mg/kg | Recovery time after stopping infusion (rats [6]; after 1 hour infusion at 2×MIR): 15 to 25 min | Types and incidence of adverse reactions (rats [6]; continuous infusion 2×MIR, in words): No | Onset time (rats [6]; [12]): 3 to 4 min | ED50 (rats [3]; class symbols): 0.1 to 0.5 mg/kg | Righting reflex duration (rats [5]): 1.75 ± 0.26 min | Adverse reactions: Red urine (incidence) (rats [5]): Red urine (8/8) | Onset time (rats [5]): 0.27 ± 0.19 min | Corticosterone as an indicator to determine the presence of inhibition ([7]; H295R, Table A3): 0 | EC50 ([7]; Homo sapiens, NCI-H295R): > 1000 nM | Cortisol as an indicator to determine the presence of inhibition ([8]; H295R, Table A3): 0 | EC50 ([8]; Homo sapiens, NCI-H295R): > 1000 nM
